Data reported in ChEMBL document CHEMBL1129586, “Estrogenic triarylethylene acetic acids: effect of structural variation on estrogen receptor affinity and estrogenic potency and efficacy in MCF-7 cells” (J Med Chem, 1996).
Calls of active or inactive are those of the source. The rule behind the calls is not given here.

Assays:
MCF7 [1] = experiment: cells; conditions: Homo sapiens
Description: Stimulation of MCF-7 cell proliferation

MCF7 [2] = experiment: cells; conditions: Homo sapiens; remark: listed apart in the source
MCF7 [3] = experiment: Inhibition of MCF-7 cell proliferation; h=No inhibitory effect; assay type: functional, cell-based; conditions: Homo sapiens
Estrogen receptor = Estrogen receptor (Rattus norvegicus, UniProt P06211+Q62986)
MCF7 [4] = experiment: Inhibition of MCF-7 cell proliferation; assay type: functional; conditions: Homo sapiens

SMILES	EC50 (MCF7 [1]) [nM]	IC50 (MCF7 [2]) [nM]	IC50 (Estrogen receptor) [nM]	IC30 (MCF7 [3])	IC30 (MCF7 [4]) [nM]
CC/C(=C(\c1ccccc1)c1ccc(OCC(=O)O)cc1)c1ccccc1	300	320	4500	–	20
O=C(O)COc1ccc(C(Cc2ccccc2)c2ccc(O)cc2)cc1 (centres undefined)	16	600	900	inactive	–
CC/C(=C(\c1ccc(C)cc1)c1ccc(OCC(=O)O)cc1)c1ccccc1	350	97	1060	–	13

Now from value to molecule, other results behind:

EC50 (MCF7 [1]) [nM]	IC50 (MCF7 [2]) [nM]	IC50 (Estrogen receptor) [nM]	SMILES	IC30 (MCF7 [3])	IC30 (MCF7 [4]) [nM]
46	2390	750	CCC(=C(c1ccc(O)cc1)c1ccc(O)cc1)c1ccc(OCC(=O)O)cc1	inactive	–
42	58	450	CC/C(=C(\c1ccc(O)cc1)c1ccc(CC(=O)O)cc1)c1ccccc1	–	2.5
5.3	21	9	CC/C(=C(\c1ccc(O)cc1)c1ccc(OCC(=O)O)cc1)c1ccccc1	–	30
